# Test results as given in ChEMBL document CHEMBL5120777, “Incorporating Selenium into Heterocycles and Natural Products─From Chemical Properties to Pharmacological Activities” (J Med Chem, 2022).
# Assays:
# Type in all cases: functional, cell-based
# PC-3 = test: Antiproliferative activity against human PC-3 cells assessed as inhibition of cell growth incubated for 72 hrs by MTT assay; settings: PC-3, 72 h
# SK-OV-3 = test: Antiproliferative activity against human SK-OV-3 cells assessed as inhibition of cell growth incubated for 72 hrs by MTT assay; settings: SK-OV-3, 72 h
# T47D = test: Antiproliferative activity against human T47D cells assessed as inhibition of cell growth incubated for 72 hrs by MTT assay
smiles,measurement,setting,value
CC(=O)O[C@H]1CC[C@@]2(C)C(=CC[C@@H]3[C@@H]2CC[C@]2(C)C(c4cccnc4)=CC[C@@H]32)C1 [ABIRATERONE ACETATE],IC50,PC-3,37.6 µM
same,IC50,SK-OV-3,51.5 µM
same,IC50,T47D,34.7 µM
